Experimental data reported in PMC10864382, “Targeting yeast topoisomerase II by imidazo and triazoloacridinone derivatives resulting in their antifungal activity” (Scientific Reports, 2024).

molecular target: T1, yeast topoisomerase II (yTOPOII) (Saccharomyces cerevisiae, UniProt P06786); assay: gel-based relaxation of supercoiled plasmid DNA, densitometry; assay type: biochemical
T1 construct: gene TOP2; purified enzyme, commercial (Inspiralis Limited, UK)
T1 sequence (P06786 1-1428): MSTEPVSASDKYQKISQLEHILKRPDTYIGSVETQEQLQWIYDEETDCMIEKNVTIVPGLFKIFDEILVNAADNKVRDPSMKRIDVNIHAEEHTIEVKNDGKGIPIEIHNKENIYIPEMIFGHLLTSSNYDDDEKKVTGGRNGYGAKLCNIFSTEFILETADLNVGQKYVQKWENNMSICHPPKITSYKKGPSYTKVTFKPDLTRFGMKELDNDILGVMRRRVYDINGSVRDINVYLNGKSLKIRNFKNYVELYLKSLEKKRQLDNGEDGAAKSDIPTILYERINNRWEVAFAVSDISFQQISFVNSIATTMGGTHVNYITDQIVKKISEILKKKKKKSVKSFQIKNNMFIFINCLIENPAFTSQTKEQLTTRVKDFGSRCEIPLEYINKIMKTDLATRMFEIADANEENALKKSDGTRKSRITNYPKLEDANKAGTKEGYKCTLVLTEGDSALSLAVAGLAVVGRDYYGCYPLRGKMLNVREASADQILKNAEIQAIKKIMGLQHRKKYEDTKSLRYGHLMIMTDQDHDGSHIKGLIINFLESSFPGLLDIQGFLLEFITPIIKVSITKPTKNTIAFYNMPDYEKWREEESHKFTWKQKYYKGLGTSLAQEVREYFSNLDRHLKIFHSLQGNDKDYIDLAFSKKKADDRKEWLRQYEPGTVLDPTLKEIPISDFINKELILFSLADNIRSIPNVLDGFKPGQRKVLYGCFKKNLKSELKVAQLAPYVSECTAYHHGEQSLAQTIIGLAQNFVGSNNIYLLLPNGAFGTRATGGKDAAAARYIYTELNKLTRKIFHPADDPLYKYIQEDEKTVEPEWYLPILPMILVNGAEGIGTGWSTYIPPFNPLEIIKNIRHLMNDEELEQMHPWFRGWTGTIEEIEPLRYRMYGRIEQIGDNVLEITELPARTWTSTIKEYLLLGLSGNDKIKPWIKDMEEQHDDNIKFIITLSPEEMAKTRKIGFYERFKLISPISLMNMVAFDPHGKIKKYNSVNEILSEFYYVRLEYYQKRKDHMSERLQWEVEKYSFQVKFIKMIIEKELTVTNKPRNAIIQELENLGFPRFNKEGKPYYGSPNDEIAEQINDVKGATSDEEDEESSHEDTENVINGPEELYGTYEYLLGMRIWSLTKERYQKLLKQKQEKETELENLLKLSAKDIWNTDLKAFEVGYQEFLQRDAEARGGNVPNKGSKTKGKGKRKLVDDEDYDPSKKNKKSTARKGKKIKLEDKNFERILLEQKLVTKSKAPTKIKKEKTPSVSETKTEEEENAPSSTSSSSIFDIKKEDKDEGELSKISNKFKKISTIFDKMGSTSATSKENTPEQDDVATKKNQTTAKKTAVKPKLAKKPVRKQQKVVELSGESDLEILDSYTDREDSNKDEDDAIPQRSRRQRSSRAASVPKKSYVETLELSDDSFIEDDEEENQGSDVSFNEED
Description: gel-based relaxation of supercoiled plasmid DNA, densitometry on yeast topoisomerase II (yTOPOII)

| Structure (SMILES) | IC50 [µM] |
| --- | --- |
| CCN(CC)CCCNc1ccc2nnn3c4ccc(C)cc4c(=O)c1c23 [IKE2, 5-[-(3′-Diethylamino)propylamino]-8-methyl-6H-[1–3]-triazolo[4,5,l-de]acridin-6-one] | 13.3 ± 1.1 |
| CCN(CC)CCCNc1ccc2nnn3c4ccc(OC)cc4c(=O)c1c23 [IKE4, 5-[-(3′-Diethylamino)propylamino]-8-methoxy-6H-[1–3]-triazolo[4,5,l-de]acridin-6-one] | 13.3 ± 1.2 |
| COc1ccc2c(c1)c(=O)c1c(NCCCN)ccc3nnn2c31 [IKE5, 5-[-(3′-Aminopropyl)amino]-8-methoxy-6H-[1–3]-triazolo[4,5,l-de]acridin-6-one] | 7.7 ± 1.1 |
| Cc1ccc2c(c1)c(=O)c1c(NCCCN(C)C)ccc3nnn2c31 [IKE1, 5-[-(3′-Dimethylamino)propylamino]-8-methyl-6H-[1–3]-triazolo[4,5,l-de]acridin-6-one] | 13.4 ± 1.1 |
| COc1ccc2c(c1)c(=O)c1c(NCCNC(=O)[C@@H](N)CCCCN)ccc3ncn2c31 [IKE14, N-{2-[(8-methoxy-6-oxo-6H-imidazo[4,5,1-de]acridin-5-yl)amino]ethyl}lysinamide] | 14.7 ± 1.1 |
| Cc1ccc2c(c1)c(=O)c1c(NCCNC(=O)[C@@H](N)CCCCN)ccc3ncn2c31 [IKE11, N-{2-[(8-methyl-6-oxo-6H-imidazo[4,5,1-de]acridin-5-yl)amino]ethyl}lysinamide] | 14.9 ± 1.1 |
| Cc1ccc2c(c1)c(=O)c1c(NCCN)ccc3ncn2c31 [IKE10, 5-[(2-aminoethyl)amino]-8-methyl-6H-imidazo[4,5,1-de]acridin-6-one] | 15.5 ± 1.3 |
| Cc1ccc2c(c1)c(=O)c1c(NCCCN)ccc3nnn2c31 [IKE6, 5-[-(3′-Aminopropyl)amino]-8-methyl-6H-[1–3]-triazolo[4,5,l-de]acridin-6-one] | 10.9 ± 1.1 |
| NCCNc1ccc2ncn3c4ccc(O)cc4c(=O)c1c23 [IKE12, 5-[(2-aminoethyl)amino]-8-hydroxy-6H-imidazo[4,5,1-de]acridin-6-one] | 10.9 ± 1.1 |
| COc1ccc2c(c1)c(=O)c1c(NCCCNC(=O)[C@@H](N)CCCCN)ccc3nnn2c31 [IKE7, N′-{3-[(8-methoxy-6-oxo-6H-[1,2,3]triazolo[4,5,1-de]acridin-5-yl)amino]propyl} lysinamide] | 13.4 ± 1.1 |
| COc1ccc2c(c1)c(=O)c1c(NCCCN(C)C)ccc3nnn2c31 [IKE3, 5-[-(3′-Dimethylamino)propylamino]-8-methoxy-6H-[1–3]-triazolo[4,5,l-de]acridin-6-one] | 13.2 ± 1.1 |
| CCN(CC)CCNc1ccc2ncn3c4ccc(O)cc4c(=O)c1c23 [C-1311] | 16.6 ± 1.3 |
| Cc1ccc2c(c1)c(=O)c1c(NCCCNC(=O)[C@@H](N)CCCCN)ccc3nnn2c31 [IKE8, N′-{3-[(8-methyl-6-oxo-6H-[1,2,3]triazolo[4,5,1-de]acridin-5-yl)amino]propyl} lysinamide] | 15.2 ± 1.2 |
| CCN(CC)CCNc1ccc2ncn3c4ccc(OC)cc4c(=O)c1c23 [C-1330] | 13.7 ± 1.1 |
| COc1ccc2c(c1)c(=O)c1c(NCCN)ccc3ncn2c31 [IKE13, 5-[(2-aminoethyl)amino]-8-methoxy-6H-imidazo[4,5,1-de]acridin-6-one] | 6.2 ± 1.2 |
| CN(C)CCCNc1ccc2nnn3c4ccc(O)cc4c(=O)c1c23 [C-1305] | 18.2 ± 1.4 |
